Laboratory results reported in the NIST ThermoML archive (doi:10.1016/j.jct.2010.04.013).
± gives the expanded uncertainty stated by the source.

Test: mn = molality of the nth substance listed, in mol/kg
Settings: 101 kPa, Liquid; for mass density: Vibrating tube method; for speed of sound: Pulse-echo method

[O-][Cl+3]([O-])([O-])[O-].[O-][Cl+3]([O-])([O-])[O-].[Sr+2] [strontium perchlorate] + C[S+](C)[O-]
Settings	mass density, 293.15 K [kg/m3]	mass density, 298.15 K [kg/m3]	mass density, 303.15 K [kg/m3]	mass density, 313.15 K [kg/m3]	mass density, 323.15 K [kg/m3]	mass density, 333.15 K [kg/m3]	speed of sound, 298.15 K [m/s]
m1 = 0.02541	1105.84 ± 0.27	1100.82 ± 0.27	1095.81 ± 0.27	1085.8 ± 0.27	1075.79 ± 0.27	1065.77 ± 0.27	–
m1 = 0.03174	1107.23 ± 0.27	1102.22 ± 0.27	1097.22 ± 0.27	1087.21 ± 0.27	1077.21 ± 0.27	1067.2 ± 0.27	1485.7 ± 1.3
m1 = 0.04183	1109.48 ± 0.28	1104.48 ± 0.28	1099.47 ± 0.28	1089.48 ± 0.27	1079.49 ± 0.27	1069.48 ± 0.27	1486.1 ± 1.3
m1 = 0.05362	1112.12 ± 0.28	1107.12 ± 0.28	1102.12 ± 0.28	1092.14 ± 0.28	1082.16 ± 0.27	1072.17 ± 0.27	1486.7 ± 1.3
m1 = 0.06535	1114.75 ± 0.28	1109.75 ± 0.28	1104.76 ± 0.28	1094.79 ± 0.28	1084.82 ± 0.28	1074.85 ± 0.28	1487.3 ± 1.3
m1 = 0.08369	1118.88 ± 0.28	1113.89 ± 0.28	1108.92 ± 0.28	1098.96 ± 0.28	1089.01 ± 0.28	1079.07 ± 0.28	1488.2 ± 1.3
m1 = 0.1061	1123.96 ± 0.29	1118.98 ± 0.29	1114.01 ± 0.28	1104.08 ± 0.28	1094.14 ± 0.28	1084.22 ± 0.28	1489.3 ± 1.3
m1 = 0.1303	1129.53 ± 0.29	1124.56 ± 0.29	1119.6 ± 0.29	1109.69 ± 0.29	1099.79 ± 0.29	1089.89 ± 0.28	1490.4 ± 1.3
m1 = 0.1512	1134.32 ± 0.29	1129.36 ± 0.29	1124.42 ± 0.29	1114.52 ± 0.29	1104.65 ± 0.29	1094.78 ± 0.29	1491.5 ± 1.3
m1 = 0.1771	1140.37 ± 0.3	1135.43 ± 0.3	1130.49 ± 0.3	1120.62 ± 0.3	1110.77 ± 0.29	1100.92 ± 0.29	1492.6 ± 1.4
m1 = 0.1981	1145.33 ± 0.3	1140.39 ± 0.3	1135.46 ± 0.3	1125.62 ± 0.3	1115.78 ± 0.3	1105.96 ± 0.3	1493.7 ± 1.4
